Data taken from publication PMC6857474, “Differential Effects of the Mitochondria-Active Tetrapeptide SS-31 (D-Arg-dimethylTyr-Lys-Phe-NH2) and Its Peptidase-Targeted Prodrugs in Experimental Acute Kidney Injury” (Frontiers in Pharmacology, 2019).

Key:
[1] = molecular target: T1, aminopeptidase A (APA) (Mus musculus, UniProt P16406); test: Histoenzymography of APA activity on frozen kidney sections of ADR-treated mice; type: biochemical; conditions: kidney sections of ADR-exposed mice, α-Glu-βNA substrate, 37°C
T1 construct: from tissue; host or cells: frozen kidney sections of ADR-treated BALB/c male mice
T1 sequence (P16406 1-945): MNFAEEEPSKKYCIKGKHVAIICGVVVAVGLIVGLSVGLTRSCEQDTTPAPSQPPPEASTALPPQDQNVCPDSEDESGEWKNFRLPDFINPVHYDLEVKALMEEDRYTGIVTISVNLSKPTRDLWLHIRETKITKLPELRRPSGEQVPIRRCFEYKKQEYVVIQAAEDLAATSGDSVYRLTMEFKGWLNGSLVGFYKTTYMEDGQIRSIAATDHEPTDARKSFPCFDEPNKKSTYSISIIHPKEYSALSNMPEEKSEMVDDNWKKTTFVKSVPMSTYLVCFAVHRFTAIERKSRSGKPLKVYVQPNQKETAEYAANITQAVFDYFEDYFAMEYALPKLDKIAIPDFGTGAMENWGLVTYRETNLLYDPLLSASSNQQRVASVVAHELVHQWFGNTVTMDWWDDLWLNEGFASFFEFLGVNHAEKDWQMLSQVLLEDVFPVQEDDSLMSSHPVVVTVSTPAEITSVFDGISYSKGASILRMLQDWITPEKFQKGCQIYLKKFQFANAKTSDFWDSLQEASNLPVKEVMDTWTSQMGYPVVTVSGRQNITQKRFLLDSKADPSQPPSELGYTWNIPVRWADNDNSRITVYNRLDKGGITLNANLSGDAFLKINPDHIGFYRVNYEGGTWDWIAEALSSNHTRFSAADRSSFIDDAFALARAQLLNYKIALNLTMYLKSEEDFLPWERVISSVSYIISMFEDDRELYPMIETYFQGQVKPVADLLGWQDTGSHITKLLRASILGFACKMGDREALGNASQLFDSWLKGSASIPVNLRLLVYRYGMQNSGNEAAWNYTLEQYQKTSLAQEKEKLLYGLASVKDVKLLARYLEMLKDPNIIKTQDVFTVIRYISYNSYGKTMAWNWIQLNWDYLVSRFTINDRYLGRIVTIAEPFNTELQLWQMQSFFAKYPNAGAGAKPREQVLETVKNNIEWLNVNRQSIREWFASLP
Procedure: (§1) Enzymatic activities were evaluated by histoenzymography on OCT-embedded frozen kidneys sections (7 µm), as previously described ([Juillerat-Jeanneret et al., 1992]; [Juillerat-Jeanneret et al., 2000]; [Juillerat-Jeanneret et al., 2003]). Briefly, slides were fixed for 5 min in cold (−20°C) acetone, air dried at room temperature, rehydrated for 5 min in 0.9% NaCl, and exposed to the α-Glu-4-methoxy-β-naphtylamide (APA; Bachem) or γ-Glu-4-methoxy-β-naphtylamide (γ-GT; Serva) substrates and Fast Blue B (Sigma-Aldrich) at 37°C for 15 to 60 min until a red coloration was visible. The slides were washed in distilled water, counterstained with hematoxylin (Mayer) for 1 min, rinsed under tap water and then with Scott solution for 1 min, and mounted in Aquamount (Immu-mount; Thermo Shandon, Pittsburgh, PA, USA) and analyzed with a Nikon Eclipse E800 microscope and digital DXM1200 camera using ACT-1 software.
(§2) Sequential sections (7 µm) of frozen OCT-embedded kidneys of adriamycin (ADR)-treated mice were exposed at 37°C to β-methoxynaphthylamide (β-NA) specific substrates of aminopeptidase A (α-Glu-βNA, upper panels) or γ-glutamyltranspeptidase (γ-Glu-βNA, lower panels) and Fast Blue B, in the absence (none) or the presence of SS-31, α-Glu-SS-31 or γ-Glu-SS-31. The sections were then counterstained with light hematoxylin reagent. The enzymatic activity is visualized as a red precipitate. […]

[2] = molecular target: T2, γ-glutamyltranspeptidase (γ-GT) (Mus musculus, UniProt Q60928); test: Histoenzymography of γ-GT activity on frozen kidney sections of ADR-treated mice; type: biochemical; conditions: kidney sections of ADR-exposed mice, γ-Glu-βNA substrate, 37°C
T2 construct: from tissue; host or cells: frozen kidney sections of ADR-treated BALB/c male mice
Procedure: as §1, §2

[3] = molecular target: T3, γ-glutamyltranspeptidase (γ-GT) (Rattus norvegicus, UniProt P07314); test: γ-GT enzymatic activity in intact living EC219 cells (γ-Glu-AMC substrate); type: cell-based; conditions: 40 µM γ-Glu-AMC
T3 construct: These cells express high levels of APA and γ-GT activities and can be used to measure kinetics in living cells; endogenous in cells; host or cells: EC219 rat brain-derived endothelial cells
Procedure: The preparation and characterization of rat brain-derived EC219 endothelial cells were previously described ([Juillerat-Jeanneret et al., 1992]). These cells express high levels of APA and γ-GT activities and can be used to measure kinetics in living cells as APA and γ-GT-positive representative cell models. The cells were grown in Dulbecco’s modified Eagle medium (DMEM) containing 1 g/L glucose, 10% heat-inactivated fetal calf serum (FCS), and antibiotics on uncoated cell culture plastic plates and flasks. […]
Stock solutions of α-Glu-AMC (APA) and γ-Glu-AMC and Gly-Gly (γ-GT) substrates, all from Bachem, were prepared at 10 mM in DMSO. […] The increase in absorbance was measured at 37°C in a thermostated fluorescence multiwell-plate reader (CytoFluor Series 4000; PerSeptive Biosystems, MA, USA) at λex = 360 nm/λem = 460 nm using the linear portion of the curves. The kinetics values were then graphically determined or according to Wu and colleagues ([Wu et al., 2011]).
(A) Intact living EC219 cells were exposed to increasing concentrations of either amastatin (left panel) or acivicin (right panel), two well-characterized enzymatic activity inhibitors of APA or γ-GT, respectively. The activities of the enzymes aminopeptidase A (APA) or γ-glutamyltranspeptidase (γ-GT) were determined using 40 µM of the substrates (S), α-Glu-AMC or γ-Glu-AMC, respectively. […] Data were analyzed graphically. […]

[4] = test system: BALB/c male mice; test: Aristolochic acid (AA)-induced acute tubulo-interstitial kidney injury model; type: in vivo, mouse; conditions: AA 1 x 5 mg/kg i.p. alone; control group 44 ± 5
Procedure: (§3) All experiments were conducted in accordance with federal and local regulations, according to a protocol approved by the animal ethics committee of the Canton de Vaud, Switzerland (No. 2655.0). Kidney injury was induced by intraperitoneal (i.p.) injection of AA (Sigma-Aldrich, 1 × 5 mg/kg) or ADR (Adriblastin, Pfizer, 1 × 10 mg/kg) in 10-week-old BALB/c male mice (n = 5–7 mice/experimental group). SS-31 analogs were diluted in 0.9% NaCl and administered i.p. once a day, starting 1 day before the disease-inducing drugs (day −1) at a dose of 3 mg/kg and then daily until day 6. The animals were weighted at days 0, 3, and 6, and sacrificed at day 7. The level of protein in urine was semi-quantitatively assessed using Albustix reagent strips (Bayer, Basel, Switzerland). At the end of the treatment period, the mice were sacrificed to remove both kidneys. The kidneys were spliced in four equal fragments containing the cortex and medulla. One fragment was immediately snap-frozen in liquid nitrogen for real-time quantitative polymerase chain reaction (qRT-PCR) and Western blot experiments, one fragment was included in OCT (Tissue-Tek, VWR International, Dietikon, Switzerland) and frozen for histoenzymography, one fragment was frozen at −80°C and used for pharmacokinetic (PK) measurements, and one fragment was fixed in 4% paraformaldehyde and included in paraffin for histology. […]

[5] = test system: BALB/c male mice; test: Adriamycin (ADR)-induced glomerular damage model; type: in vivo, mouse; conditions: ADR 1 x 10 mg/kg i.p. alone, at the time of sacrifice
Procedure: as §3

T2 sequence (Q60928 whole entry): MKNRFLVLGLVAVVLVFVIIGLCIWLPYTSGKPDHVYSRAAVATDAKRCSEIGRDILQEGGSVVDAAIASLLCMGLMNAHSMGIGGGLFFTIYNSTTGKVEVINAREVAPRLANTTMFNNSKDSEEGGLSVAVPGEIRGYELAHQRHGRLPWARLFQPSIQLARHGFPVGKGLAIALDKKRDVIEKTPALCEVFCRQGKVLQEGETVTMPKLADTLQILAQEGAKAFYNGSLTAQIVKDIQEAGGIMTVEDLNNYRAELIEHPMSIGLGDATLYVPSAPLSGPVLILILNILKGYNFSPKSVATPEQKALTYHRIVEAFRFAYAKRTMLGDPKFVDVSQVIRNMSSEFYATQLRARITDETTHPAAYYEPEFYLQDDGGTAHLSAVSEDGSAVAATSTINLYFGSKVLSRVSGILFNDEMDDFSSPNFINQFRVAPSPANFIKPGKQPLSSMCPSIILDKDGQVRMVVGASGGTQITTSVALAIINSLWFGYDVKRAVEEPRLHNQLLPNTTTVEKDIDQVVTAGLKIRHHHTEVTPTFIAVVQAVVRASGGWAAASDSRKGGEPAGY
T3 sequence (P07314 whole entry): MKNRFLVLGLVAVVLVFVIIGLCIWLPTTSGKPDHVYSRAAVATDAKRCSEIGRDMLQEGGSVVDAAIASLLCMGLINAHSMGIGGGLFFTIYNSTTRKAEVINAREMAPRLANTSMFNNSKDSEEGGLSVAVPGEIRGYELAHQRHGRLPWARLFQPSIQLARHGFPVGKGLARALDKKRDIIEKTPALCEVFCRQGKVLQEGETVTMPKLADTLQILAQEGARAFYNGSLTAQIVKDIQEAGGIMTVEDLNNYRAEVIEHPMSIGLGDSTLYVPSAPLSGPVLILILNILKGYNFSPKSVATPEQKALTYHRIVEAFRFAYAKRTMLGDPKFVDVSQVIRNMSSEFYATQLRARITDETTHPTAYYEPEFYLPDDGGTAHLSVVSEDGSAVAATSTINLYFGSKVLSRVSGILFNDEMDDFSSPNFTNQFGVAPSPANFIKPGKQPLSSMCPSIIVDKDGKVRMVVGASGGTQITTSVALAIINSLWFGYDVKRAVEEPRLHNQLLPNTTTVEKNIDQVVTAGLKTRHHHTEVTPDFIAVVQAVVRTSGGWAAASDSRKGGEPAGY

“H-γ-Glu-D-Arg-DMT-Lys-Phe-NH 2 .2TFA [γ-Glu-SS-31]” was tested, and the “enzymatic activity of APA (histoenzymography)” value [1] was “not” and the “enzymatic activity of γ-GT (histoenzymography)” value [2] was “modified neither”.

N[C@H](C(=O)O)[C@@H]1CC(Cl)=NO1 [acivicin] gave an IC50 [3] of 48 µM.

COc1cccc2c1cc([N+](=O)[O-])c1c(C(=O)O)cc3c(c12)OCO3 [AA, aristolochic acid] showed a mean creatinine [4] of 258 ± 92 µmol/L.

COc1cccc2c1C(=O)c1c(O)c3c(c(O)c1C2=O)C[C@@](O)(C(=O)CO)C[C@@H]3O[C@H]1C[C@H](N)[C@H](O)[C@H](C)O1 [ADR, adriamycin] showed a mean creatinine [5] of 33 ± 5 µmol/L.
